A word on the pIC50: it is −log10 of the IC50, conventionally taken in molar units. Low readings indicate a high IC50, high ones a low IC50.

Consider one compound from US11203598B2, “Compounds for repressing cancer cell growth” (Institute For Cancer Research, priority 2018, dated 2021).

Test [1] deals with T1, R175H p53 mutant in HCT116 p53 R175H cells (Homo sapiens, UniProt P04637, R175H).
T1 construct: V5 (only from the vector name pLenti6/V5); host or cells: HCT116 p53-/- cells, lentivirus infection, blasticidin-selected pooled clones
Briefly: Western blot of mutant p53. The format is cell-based. The protocol: HCT116 p53^−/− cells (previously obtained from the Vogelstein Laboratory, Johns Hopkins University) were infected with a lentivirus vector containing the p53 R175H mutant (pLenti6/V5-p53_R175H, Addgene). Cells were selected with blasticidin (8 μg/mL) containing media cultured for 10 days. Blasticidin-resistant clones (pooled clones) were screened for expression of the p53 R175H mutation by Western blot analysis with p53 DO-1 antibody.
After treatment, cells were harvested by trypsinization, washed with PBS, and lysed with RIPA buffer (Sigma-Aldrich) for 30 minutes to 1 hour at 4° C. Protein lysates were spun down and supernatant was collected. Protein quantification was performed using a Pierce™ BCA Protein Assay Kit (Thermo Fisher Scientific). 1×NuPAGE® LDS sample buffer (Thermo Fisher Scientific) and 2-Mercaptoethanol as the reducing agent (Sigma-Aldrich) were added to protein lysates, followed by boiling for 15 minutes at 95° C. Equal total protein amounts samples were loaded into NuPAGE™ Novex™ 4-12% Bis-Tris Protein Gels (1.5 mm, Thermo Fisher Scientific) and gel eletrophoresis was performed with NuPAGE™ MES SDS Running Buffer. Proteins were transferred onto an Immobilon-P membrane (PVDF, EMD Millipore) using a Bio-Rad system with a 10% Tris-Glycine and 10% methanol transfer buffer diluted in distilled and deionized water. After transfer, membranes were blocked with 10% milk in TBST solution and then incubated overnight with primary antibody, washed with TBST and incubated with secondary antibody for 1 hour. Incubations were performed in 5% milk in TBST solution. Signal was detected by using a chemiluminescent detection kit, followed by autoradiography. The following antibodies were used: p53 (DO-1, 1:1000, Santa Cruz), p73 (1:1000, Bethyl Laboratories), p21 and NOXA (1:250, EMD Millipore), DR5, FADD, cleaved caspase 3, cleaved caspase 8, cleaved PARP, and LC3B (1:1000, Cell Signaling), and β-actin (1:10000, Sigma).
On the technique in general: In western blotting, separated proteins are transferred to a membrane and probed.

The next test deals with WI38 normal cells. Briefly: apoptosis assay, sub-G1 analysis (propidium iodide, flow cytometry). It is filed as cell-based, human. The protocol:
Apoptotic cells were quantified by sub-G1 analysis. Cells were seeded at a density of 2.5×10^5 to 5×10^5 in a 6-well plate and treated for 48-72 hours. After treatment, adherent cells were trypsinized and collected along with floating cells, washed with PBS and fixed in 70% ethanol. Cells were then incubated in a Phosphate-citric acid buffer (0.2 M Na2HPO4+0.1 M Citric Acid, pH 7.8) at room temperature for 5 minutes, spun down and resuspended for staining with 50 μg/mL propidium iodide (PI) in the presence of 250 μg/mL pancreatic ribonuclease (RNase A). Sub-G1 analyses were performed using an Epics Elite Epics flow cytometer (Coulter-Beckman).
Cells were seeded out at 1×10^6 cells/well on six well plates and treated with CB002 and Analog 11 at ranging doses with DMSO controls. Cells were harvested after 72 hours of treatment, all cells including floating cells were fixed with ethanol and stained with Propidium Iodide and then analyzed using Epics Elite flow cytometer to measure the DNA content of the stained cells.
(A flow cytometer gives signals particle by particle.)

The next test has as its system DLD-1 p73kd cells. Kind of test: CellTiter-Glo luminescent cell viability assay. Particulars: Homo sapiens, 72 hours, GraphPad. It is filed as cell-based. The procedure:
(§1) Cells were seeded in 96-well plates at a density of 5×10^3 cells per well. 20 μL of CellTiter-Glo® Reagent was added directly to the wells, following the manufacturer's protocol, and bioluminescence signal was determined using an IVIS imaging system.
(§2) To begin establishing the potential of CB002 as a candidate therapeutic agent, its therapeutic index was determined by treating cancer (DLD-1, SW480, and RXF393) and normal (WI38 and MRC5) cell lines with concentrations of CB002 ranging from 0-500 μM for a period of 72 hours and assessing cell viability by the CellTiter-Glo® luminescence assay (see, FIG. 2). CB002 has a significant therapeutic index among the cells tested.
Background: ATP-based viability assays read luminescence as a measure of living cells.

For test [2], the system named is MRC5 normal lung fibroblasts. Briefly: CellTiter-Glo luminescent cell viability assay. It is filed as cell-based. The settings on record: Homo sapiens, MRCS (normal), 72 hours, GraphPad. The procedure:
as §1, §2

The test system of test [3] is RXF393 renal cancer cells. Briefly: CellTiter-Glo luminescent cell viability assay. It is filed as cell-based. Particulars: Homo sapiens, RXF 393; RXF393, 72 hours, GraphPad. The procedure: as §1, §2
A further test has as its system DLD-1 cells. Briefly: CellTiter-Glo luminescent cell viability assay. It is filed as cell-based. Particulars: Homo sapiens; DLD-1, 72 hours, GraphPad. The procedure:
as §1, §2

pIC50: −log10 of the molar value.

Consider `Cn1c(=O)c2[nH]c(Nc3ccccc3)nc2n(C)c1=O` [CB002, 8-anilino-1,3-dimethyl-3,7-dihydro-1H-purine-2,6-dione], for which the “R175H mutant p53 protein expression” value in test [1] (50 and 100 μM, 16 and 24 hours, versus DMSO) was “decrease in mutant p53 protein expression”; in test [1] (co-treatment with chloroquine, 16 and 24 hours), “did not rescue R175H mutant p53 protein expression”; in test [1] (with proteasome inhibitor MG132 (5 and 10 μM), 24 hours), “appeared to rescue R175H mutant p53 protein expression”. Also, in test [1] (50 or 100 μM with MDM2 inhibitor Nutlin-3A, 24 hours), the “R175H p53 mutant protein expression” value is recorded as “still resulted in reduction of R175H p53 mutant protein expression”. This compound yielded a sub-G1 population in the test with WI38 normal cells (96 μM, 48 hours, DMSO control 7.6%) of 9.8%. The sub-G1 fraction entry with WI38 normal cells (200 μM, 72 hours) is recorded as “relatively unchanged”. For the same compound, the pIC50 was 3.62 with DLD-1 p73kd cells, 3.19 in test [2], 3.40 in test [3] and 3.79 in the test with DLD-1 cells.
